Laboratory results reported in the supplement of paper PMC10307832.

Columns and labels:
Assay in all cases: relative viability (nuclei count vs DMSO), 5 days (fraction); higher = more cells survive
[1] = compound: CC(C)=CC[C@@H](O)C1=CC(=O)c2c(O)ccc(O)c2C1=O [Shikonin] + CCNC(=O)c1noc(-c2cc(C(C)C)c(O)cc2O)c1-c1ccc(CN2CCOCC2)cc1 [Luminespib] (partner 0.01 µM)
Outline: (§1)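 Medians of duplicate plates are given as relative viability. That measure is the nuclei count in treated wells divided by the count in vehicle wells. Counts were taken on 4× images of lung cancer cell lines in 1536-well plates, 5 days after pin-tool dosing the day after seeding with one drug alone or a fixed anchor-drug dose plus five library-drug doses (not always all listed) in √10 steps.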

[2] = compound: CC(C)=CC[C@@H](O)C1=CC(=O)c2c(O)ccc(O)c2C1=O [Shikonin] + CS(=O)(=O)N1CCN(Cc2cc3nc(-c4cccc5[nH]ncc45)nc(N4CCOCC4)c3s2)CC1 [Pictilisib] (partner 1 µM)
Outline: as §1

[3] = compound: CC(C)N(CCCNC(=O)Nc1ccc(C(C)(C)C)cc1)C[C@H]1O[C@@H](n2ccc3c(N)ncnc32)[C@H](O)[C@@H]1O + COc1cccc2cc(-c3nc([C@H]4CC[C@H](C(=O)O)CC4)n4ncnc(N)c34)[nH]c12 [OSI-027] (partner 0.5 µM)
Outline: as §1

[4] = compound: CC(C)N(CCCNC(=O)Nc1ccc(C(C)(C)C)cc1)C[C@H]1O[C@@H](n2ccc3c(N)ncnc32)[C@H](O)[C@@H]1O + NC(=O)Nc1cc(-c2cccc(F)c2)sc1C(=O)N[C@H]1CCCNC1 [AZD7762] (partner 0.2 µM)
Outline: as §1

Work on HOP-62 yielded a relative viability ([1]; first compound 0.01 µM) of 0.975, a relative viability ([1]; first compound 0.1 µM) of 0.763 and a relative viability ([1]; first compound 0.3162 µM) of 0.96. For the same cell line, the relative viability ([1]; first compound 1 µM) was 0.914, the relative viability ([2]; first compound 0.01 µM) was 0.714 and the relative viability ([2]; first compound 0.1 µM) was 1.09. For the same cell line, the relative viability ([2]; first compound 0.3162 µM) was 0.933, the relative viability ([2]; first compound 1 µM) was 0.62 and the relative viability ([3]; first compound 0.08 µM) was 0.864. For the same cell line, the relative viability ([3]; first compound 0.253 µM) was 0.89, the relative viability ([3]; first compound 0.8 µM) was 0.767 and the relative viability ([3]; first compound 2.53 µM) was 0.751. For the same cell line, the relative viability ([3]; first compound 8 µM) was 0.681, the relative viability ([4]; first compound 0.08 µM) was 0.681 and the relative viability ([4]; first compound 0.253 µM) was 0.51. For the same cell line, the relative viability ([4]; first compound 0.8 µM) was 0.517, the relative viability ([4]; first compound 2.53 µM) was 0.777 and the relative viability ([4]; first compound 8 µM) was 0.322.

IA-LM gave a relative viability ([2]; first compound 0.01 µM) of 0.363, a relative viability ([2]; first compound 0.1 µM) of 0.364 and a relative viability ([2]; first compound 0.3162 µM) of 0.337. It also gave a relative viability ([2]; first compound 1 µM) of 0.305.

For LC-2-ad, the relative viability ([1]; first compound 0.01 µM) was 0.934, the relative viability ([1]; first compound 0.1 µM) was 1.11 and the relative viability ([1]; first compound 0.3162 µM) was 1.08. For the same cell line, the relative viability ([1]; first compound 1 µM) was 1.07, the relative viability ([2]; first compound 0.01 µM) was 0.336 and the relative viability ([2]; first compound 0.1 µM) was 0.506. It also gave a relative viability ([2]; first compound 0.3162 µM) of 0.469, a relative viability ([2]; first compound 1 µM) of 0.408 and a relative viability ([3]; first compound 0.08 µM) of 0.845. It also gave a relative viability ([3]; first compound 0.253 µM) of 0.823, a relative viability ([3]; first compound 0.8 µM) of 0.892 and a relative viability ([3]; first compound 2.53 µM) of 0.816. The relative viability ([3]; first compound 8 µM) was 0.855, the relative viability ([4]; first compound 0.08 µM) was 0.834 and the relative viability ([4]; first compound 0.253 µM) was 0.802. For the same cell line, the relative viability ([4]; first compound 0.8 µM) was 0.677, the relative viability ([4]; first compound 2.53 µM) was 0.787 and the relative viability ([4]; first compound 8 µM) was 0.771.

Cell Line LCLC-97TM1 has a relative viability ([1]; first compound 0.01 µM) of 0.833, a relative viability ([1]; first compound 0.1 µM) of 0.776 and a relative viability ([1]; first compound 0.3162 µM) of 0.878. The relative viability ([1]; first compound 1 µM) was 0.717, the relative viability ([2]; first compound 0.01 µM) was 0.172 and the relative viability ([2]; first compound 0.1 µM) was 0.143. For the same cell line, the relative viability ([2]; first compound 0.3162 µM) was 0.266, the relative viability ([2]; first compound 1 µM) was 0.169 and the relative viability ([3]; first compound 0.08 µM) was 0.555. It also gave a relative viability ([3]; first compound 0.253 µM) of 0.642, a relative viability ([3]; first compound 0.8 µM) of 0.716 and a relative viability ([3]; first compound 2.53 µM) of 0.557. It also gave a relative viability ([3]; first compound 8 µM) of 0.679, a relative viability ([4]; first compound 0.08 µM) of 0.233 and a relative viability ([4]; first compound 0.253 µM) of 0.266. It also gave a relative viability ([4]; first compound 0.8 µM) of 0.354, a relative viability ([4]; first compound 2.53 µM) of 0.235 and a relative viability ([4]; first compound 8 µM) of 0.147.

Cell Line LCLC-103H has a relative viability ([1]; first compound 0.01 µM) of 1.01, a relative viability ([1]; first compound 0.1 µM) of 1.17 and a relative viability ([1]; first compound 0.3162 µM) of 1.06. The relative viability ([1]; first compound 1 µM) was 0.993, the relative viability ([2]; first compound 0.01 µM) was 0.503 and the relative viability ([2]; first compound 0.1 µM) was 0.708. It also gave a relative viability ([2]; first compound 0.3162 µM) of 0.677, a relative viability ([2]; first compound 1 µM) of 0.676 and a relative viability ([3]; first compound 0.08 µM) of 0.447. For the same cell line, the relative viability ([3]; first compound 0.253 µM) was 0.58, the relative viability ([3]; first compound 0.8 µM) was 0.495 and the relative viability ([3]; first compound 2.53 µM) was 0.451. It also gave a relative viability ([3]; first compound 8 µM) of 0.467, a relative viability ([4]; first compound 0.08 µM) of 0.745 and a relative viability ([4]; first compound 0.253 µM) of 0.805. For the same cell line, the relative viability ([4]; first compound 0.8 µM) was 0.686, the relative viability ([4]; first compound 2.53 µM) was 0.701 and the relative viability ([4]; first compound 8 µM) was 0.727.

For LK-2, the relative viability ([1]; first compound 0.01 µM) was 0.195, the relative viability ([1]; first compound 0.1 µM) was 0.185 and the relative viability ([1]; first compound 0.3162 µM) was 0.211. For the same cell line, the relative viability ([1]; first compound 1 µM) was 0.17, the relative viability ([2]; first compound 0.01 µM) was 0.531 and the relative viability ([2]; first compound 0.1 µM) was 0.546. It also gave a relative viability ([2]; first compound 0.3162 µM) of 0.619, a relative viability ([2]; first compound 1 µM) of 0.476 and a relative viability ([3]; first compound 0.08 µM) of 0.235. It also gave a relative viability ([3]; first compound 0.253 µM) of 0.277, a relative viability ([3]; first compound 0.8 µM) of 0.215 and a relative viability ([3]; first compound 2.53 µM) of 0.236. It also gave a relative viability ([3]; first compound 8 µM) of 0.213, a relative viability ([4]; first compound 0.253 µM) of 0.332 and a relative viability ([4]; first compound 0.8 µM) of 0.628. It also gave a relative viability ([4]; first compound 2.53 µM) of 0.428 and a relative viability ([4]; first compound 8 µM) of 0.322.

LOU-NH91 showed a relative viability ([1]; first compound 0.01 µM) of 0.317, a relative viability ([1]; first compound 0.1 µM) of 0.358 and a relative viability ([1]; first compound 0.3162 µM) of 0.382. The relative viability ([1]; first compound 1 µM) was 0.332, the relative viability ([2]; first compound 0.01 µM) was 0.509 and the relative viability ([2]; first compound 0.1 µM) was 0.544. It also gave a relative viability ([2]; first compound 0.3162 µM) of 0.52, a relative viability ([2]; first compound 1 µM) of 0.563 and a relative viability ([3]; first compound 0.08 µM) of 0.734. For the same cell line, the relative viability ([3]; first compound 0.253 µM) was 0.714, the relative viability ([3]; first compound 0.8 µM) was 0.666 and the relative viability ([3]; first compound 2.53 µM) was 0.689. It also gave a relative viability ([3]; first compound 8 µM) of 0.728, a relative viability ([4]; first compound 0.08 µM) of 0.751 and a relative viability ([4]; first compound 0.253 µM) of 0.697. The relative viability ([4]; first compound 2.53 µM) was 0.763 and the relative viability ([4]; first compound 8 µM) was 0.767.

Work on NCI-H520 yielded a relative viability ([1]; first compound 0.01 µM) of 0.253, a relative viability ([1]; first compound 0.1 µM) of 0.216 and a relative viability ([1]; first compound 0.3162 µM) of 0.21. The relative viability ([1]; first compound 1 µM) was 0.207, the relative viability ([2]; first compound 0.1 µM) was 0.393 and the relative viability ([2]; first compound 0.3162 µM) was 0.263. For the same cell line, the relative viability ([2]; first compound 1 µM) was 0.348, the relative viability ([3]; first compound 0.08 µM) was 0.181 and the relative viability ([3]; first compound 0.253 µM) was 0.248. It also gave a relative viability ([3]; first compound 0.8 µM) of 0.235, a relative viability ([3]; first compound 2.53 µM) of 0.348 and a relative viability ([3]; first compound 8 µM) of 0.267.

With NCI-H522 the relative viability ([1]; first compound 0.01 µM) was 1.09, the relative viability ([1]; first compound 0.1 µM) was 0.917 and the relative viability ([1]; first compound 0.3162 µM) was 1.29. It also gave a relative viability ([1]; first compound 1 µM) of 1.31, a relative viability ([3]; first compound 0.08 µM) of 0.58 and a relative viability ([3]; first compound 0.253 µM) of 0.895. For the same cell line, the relative viability ([3]; first compound 0.8 µM) was 0.848, the relative viability ([3]; first compound 2.53 µM) was 0.643 and the relative viability ([3]; first compound 8 µM) was 0.809. It also gave a relative viability ([4]; first compound 0.08 µM) of 0.891, a relative viability ([4]; first compound 0.253 µM) of 0.794 and a relative viability ([4]; first compound 0.8 µM) of 0.806. The relative viability ([4]; first compound 2.53 µM) was 0.785 and the relative viability ([4]; first compound 8 µM) was 0.886.

Cell Line NCI-H661 has a relative viability ([1]; first compound 0.01 µM) of 0.951, a relative viability ([1]; first compound 0.1 µM) of 1.06 and a relative viability ([1]; first compound 0.3162 µM) of 0.932. For the same cell line, the relative viability ([1]; first compound 1 µM) was 0.858, the relative viability ([2]; first compound 0.01 µM) was 0.372 and the relative viability ([2]; first compound 0.1 µM) was 0.427. It also gave a relative viability ([2]; first compound 0.3162 µM) of 0.39, a relative viability ([2]; first compound 1 µM) of 0.38 and a relative viability ([3]; first compound 0.08 µM) of 0.719. It also gave a relative viability ([3]; first compound 0.253 µM) of 0.775, a relative viability ([3]; first compound 0.8 µM) of 0.68 and a relative viability ([3]; first compound 2.53 µM) of 0.714. The relative viability ([3]; first compound 8 µM) was 0.683.

Work on NCI-H1299 yielded a relative viability ([2]; first compound 0.01 µM) of 0.76, a relative viability ([2]; first compound 0.1 µM) of 1.08 and a relative viability ([2]; first compound 0.3162 µM) of 0.711. The relative viability ([2]; first compound 1 µM) was 0.429.
